Reference: patent US8354106B2, “Antibodies against HMGB1 and fragments thereof” (The Feinstein Institute for Medical Research, priority 2005, dated 2013)
Entries after “also recorded” stand apart in the source; their conditions may differ. Where no end group is shown, it is not given here. The star is where a group is joined. Biotin = O=C1N[C@H]2[C@H](CS[C@H]2CCCCC(=O)*)N1

What was measured:
Type in all cases: cell-based, mouse
[1] = tested on: murine bone marrow-derived dendritic cells (BM-DCs); experiment: Cytokine/chemokine secretion by murine bone marrow-derived dendritic cells (ELISA); parameters: key to TNFα secretion / IL-18 secretion / IL-8 secretion / IL-10 secretion / IL-2 secretion / IL-1β secretion / IL-5 secretion / IL-6 secretion / IL-12 secretion: “+” indicates an increase; “−” indicates no change relative to untreated cells (medium); conditions: for IL-1β secretion / IL-2 secretion / IL-5 secretion / IL-6 secretion / IL-8 secretion / IL-10 secretion / IL-12 secretion / IL-18 secretion / TNFα secretion: MURINE DC, ELISA 48 h after exposure, relative to untreated cells; for IL-1β secretion / IL-2 secretion / IL-5 secretion / IL-6 secretion / IL-8 secretion / IL-10 secretion / IL-12 secretion / IL-18 secretion / TNFα secretion / secretion of IL-1β / secretion of IL-2 / secretion of IL-8 / secretion of IL-5 / secretion of IL-18 / secretion of TNF-α / secretion of IL-12 (p70): peptides 200 μg/ml, HMGB1-Bx 50 μg/ml; for cytokine secretion by murine BM-DCs / secretion of IL-1β / secretion of IL-2 / secretion of IL-8 / secretion of IL-5 / secretion of IL-18 / secretion of TNF-α / secretion of IL-12 (p70): murine BM-DCs; for secretion of IL-1β: FIG. 2A; for secretion of IL-1β / secretion of IL-2 / secretion of IL-8 / secretion of IL-5 / secretion of IL-18 / secretion of TNF-α / secretion of IL-12 (p70): 48 h; for secretion of IL-2: FIG. 2C; for secretion of IL-8: FIG. 2D; for secretion of IL-5: FIG. 2E; for secretion of IL-18: FIG. 2F; for secretion of TNF-α: FIG. 2G; for secretion of IL-12 (p70): FIGS. 2B, 2H
Experimental: Bone marrow-derived DCs (BM-DCs) were generated using modifications of the original method described by Inaba, et al. (J. Exp. Med. 1 76:1693-1702 (1992)). In brief, bone marrow suspensions were incubated with red cell lysis buffer (PUREGENE™ RBC Lysis Solution, Gentra Systems, Minneapolis, Minn.) to remove red blood cells. After washing in media, lymphocytes and Ia-positive cells were killed with a cocktail of monoclonal antibodies (mAbs) and rabbit complement for 60 min at 37° C. The mAbs that were used were GK1.5 anti-CD4, TIB211 anti-CD8, TIB 120 anti-Ia, and TIB 146 anti B220 (these mAbs were kindly provided by Dr. Ralph Steinman). The cells were subsequently cultured in media containing 5% FCS and 10 ng/ml recombinant mouse GM-CSF (R&D Systems, Minneapolis, Minn.) for 7 days. For some experiments, the cells were further purified at day 7 using CD11c^+-microbeads (Miltenyi Biotech., Auburn, Calif.), according to the manufacturer's instructions.
Recombinant HMGB1-B box domain (HMGB1-Bx) was expressed in Escherichia coli and purified as described by Li, et al. (Mol. Med. 9:37-45; J. Immunol. Methods 289:211-223 (2004)). Purified HMGB1-Bx contained trace amounts of LPS (19 pg LPS/μg HMGB1-Bx) as measured by the chromogenic Limulus amebocyte lysate assay (BioWhittacker Inc, Walkersville, Md.). All experiments using HMGB1-Bx, as well as the HMGB1 peptides, were performed in the presence of polymyxin B (200 U/ml) to neutralize the amount of contaminating LPS in the HMGB1-Bx and peptide preparations. We have previously shown that the DC stimulatory capacity of HMGB1-Bx requires an intact tertiary structure and is not due to contaminating amounts of LPS, as trypsinization abolished HMGB1-Bx activity (Messmer, et al., J. Immunol. 173: 307-313 (2004); the entire teachings of which are incorporated herein by reference).
Secreted cytokine/chemokine levels were measured by ELISA (Pierce Boston Technology Center, SearchLight™ Proteome Arrays Multiplex Sample Testing Services, Woburn, Mass.) 48 h after addition of the various peptides. Polymyxin B (200 U/ml) was added to all cultures, except those containing LPS, before the stimuli were added. Immature monocyte-derived human dendritic cells (DCs) and immature bone-marrow derived murine dendritic cells (BM-DCs) were cultured either in the presence of HMGB1 peptides (200 μg/ml), whose sequences map to different regions of the HMGB1 protein (see Table 1), the entire HMGB1 B-box domain (HMGB1-Bx) (50 μg/ml), or LPS (100 ng/ml). Untreated cells (medium) were tested as a control. Each peptide was named according to the corresponding position of its first amino acid within the full-length HMGB1 sequence. All peptides were N-terminally biotinylated except “Hp-106 (non bio)”.

immature BM-DCs = experiment: Phenotypic maturation of murine BM-DCs: surface maturation markers by FACS; conditions: CD11c+ gated, mean fluorescence intensity, peptide 200 μg/ml, HMGB1-Bx 50 μg/ml; for CD86 expression on the surface of BM-DCs: FIG. 3A; for MHC-II expression on the surface of BM-DCs: FIG. 3B; for CD40 expression on the surface of BM-DCs: FIG. 3C
Experimental: In order to determine whether HMGB1-Bx and/or particular HMGB1 peptides could induce phenotypic maturation of murine DCs, immature BM-DCs were exposed to either HMGB1-Bx, a particular HMGB1 peptide, or LPS (FIG. 3). Fluorescence activated cell sorting (FACS) analysis was performed on immature DCs that were cultured in the presence of either HMGB1-Bx (50 μg/ml), an HMGB1 peptide (200 μg/ml), or LPS (100 ng/ml). Untreated DCs (medium) were also tested as a control. DCs were gated on CD11c^+ cells and analyzed for expression of specific maturation markers (e.g., CD86, MHC-II, CD40) by surface membrane immunofluorescence. In particular, 1×10^4 DCs were reacted for at least 20 min at 4° C. in […] of PBS/5% FCS/0.1% sodium azide (staining buffer) with fluorescein isothiocyanate (FITC)-conjugated IgG monoclonal antibodies (mAbs) that are specific for CD86, CD40 or MHC-II (eBioscience). Cells were then washed 4 times with staining buffer, fixed in 10% formaldehyde in PBS (pH 7.2-7.4) and examined by flow cytometry using a FACScan (BD Biosciences). In all experiments, isotype controls were included using a FITC-conjugated irrelevant mAb of the same Ig class. Results are depicted as mean fluorescence intensity (MFI).

[2] = tested on: allogeneic T cells co-cultured with BM-DCs; experiment: Functional maturation of BM-DCs: allogeneic T cell proliferation in mixed lymphocyte reaction (3H-thymidine); conditions: BM-DCs from C57/BL6 mice exposed 48 h; peptide 200 μg/ml, HMGB1-Bx 50 μg/ml; DC:T cell ratio 1:120, 5 days; FIG. 4A
Experimental: Immature BM-DCs that were generated from C57/BL6 mice (FIG. 4A) or Balb/c mice (FIG. 4B) were incubated for 48 h with either HMGB1-Bx (50 μg/ml), a particular HMGB1 peptide (200 μg/ml), LPS (100 ng/ml) or were left untreated (medium). T cells were isolated by negative selection using the mouse SpinSep antibody cocktail from StemCell Technologies (Vancouver, Calif.), according to the manufacturer's instructions. The cell purity of the isolated T cells was routinely ˜99% pure. In order to assess levels of T cell activation and proliferation, cells were plated at 10^5 cells per well in a round-bottomed 96-well tray at a DC:T cell ratio of 1:120 for 5 days in the medium described above. The microcultures were pulsed with (^3H)-thymidine ([…]) for the final 8 h of culture. Cell cultures were harvested onto glass fiber filters with an automated multiple sample harvester and the amount of isotope incorporation was determined by liquid scintillation β-emission. Responses are reported as mean cpm of thymidine incorporation by triplicate cultures (±SEM).

Sequence	IL-1β secretion [1]	IL-2 secretion [1]	IL-5 secretion [1]	IL-6 secretion [1]	IL-8 secretion [1]	IL-10 secretion [1]	IL-12 secretion [1]	IL-18 secretion [1]	TNFα secretion [1]	cytokine secretion by murine BM-DCs [1]	secretion of IL-1β [1]	secretion of IL-2 [1]	secretion of IL-8 [1]	secretion of IL-5 [1]	secretion of IL-18 [1]	secretion of TNF-α [1]	secretion of IL-12 (p70) [1]	CD86 expression on the surface of BM-DCs (immature BM-DCs)	MHC-II expression on the surface of BM-DCs (immature BM-DCs)	CD40 expression on the surface of BM-DCs (immature BM-DCs)	further results
YAFFVQTCREEHIKKHPD [Hp-16]	+	+	+	−	−	−	+	+	−	enhanced cytokine secretion; also recorded: stimulated cytokine secretion	enhanced secretion	enhanced secretion	only Hp-106 enhanced secretion	enhanced secretion	enhanced secretion	only Hp-106 enhanced secretion	enhanced secretion	strong upregulation	strong upregulation	strong upregulation	proliferation of resting allogeneic T cells (3H thymidine incorporation) [2]: activated proliferation
CSEYRPKIKGEHPGLSIG [Hp-106] (Biotin-CSEYRPKIKGEHPGLSIG; listed as Homo sapiens)	+	+	+	−	+	−	+	+	+	induced cytokine secretion by murine BM-DCs; also recorded: high levels of cytokine secretion	enhanced secretion	enhanced secretion	enhanced secretion	enhanced secretion	enhanced secretion	enhanced secretion	enhanced secretion	did not significantly enhance	did not significantly enhance	did not significantly enhance	proliferation of resting allogeneic T cells (3H thymidine incorporation) [2]: activated proliferation
